These results are taken from patent publication EP0429522B1, “PHOSPHOSUGAR-BASED ANTI-INFLAMMATORY AND/OR IMMUNOSUPPRESSIVE DRUGS” (THE AUSTRALIAN NATIONAL UNIVERSITY, priority 1988, dated 1990).

For assay [1], the system named is Delayed-Type Hypersensitivity (DTH). Nature of the assay: Delayed-type hypersensitivity (DTH) footpad swelling after sheep red blood cell challenge. The following applies: 24 hours after challenge; 0.15mg i/p per injection, 7 injections at approx. 3½ hour intervals. Format: in vivo, C57Bl mice. As to the method:
C57Bl mice were sensitised by i.v. injection 10⁵ of washed sheep red blood cells. 5 days later they were challenged in the right hind footpad with SRBC. Each mouse was given a 0.25ml injection i/p at the same time of either saline, mannose-6-phosphate or the 1,2,3,4-tetraacetate of mannose-6-phosphate and all injections were repeated a further 6 times at approx. 3½ hour intervals. The dose in each injection of mannose-6- phosphate was 0.15mg and of 1,2,3,4-tetra-O-acetyl derivative of mannose-6-phosphate was also 0.15mg. At 24 hours after challenge the DTH swelling was measured.

In assay [2] the test system is Adoptively Transferred EAE. Nature of the assay: Inhibition of adoptively transferred EAE (clinical signs), phosphosugar delivered by subcutaneous mini-osmotic pumps. Format: in vivo, Lewis rats. Conditions: for Disease Severity (%Control): product of mean clinical score and mean length disease; for inhibition of EAE (result in words): summary of Tables I, III and IV. On the procedure:
In this Example, a number of phosphosugars and one phospho-polysaccharide were tested for their ability to inhibit development of EAE in rats. (All phosphosugars tested are commercially available and were obtained from Sigma Chemical Co., St. Louis, MO, U.S.A.). Experimental details are included in the footnotes to the Tables setting out the test results.
Thus, although 7/10 animals treated with mannose-6-phosphate developed some clinical signs of disease (Table III) the severity of these disease symptoms was extremely mild compared with untreated animals, i.e., <10% disease severity of controls when clinical scores and duration of disease are examined. In this sense, the mannose-6-phosphate data in Tables I and III are almost identical. […]
In these experiments, details of which were as in Table I, the number of cells transferred was 25x10⁶/rat, while the dose of compound administered was 10mg/rat delivered over a 7 day period by mini-osmotic pumps, commencing on day 3 after cell transfer.

The subject of assay [3] is EAE. Nature of the assay: Histological analysis of spinal cord inflammatory lesions in EAE rats. Format: in vivo. The following applies: for No.Lesions: lower thoracic-upper lumbar spinal cord sections, treated as in Table I; for No.Lesions / Lesions/section: 9 days after cell transfer; for Lesions/section: spinal cord sections. The text has this:
Such data are consistent with the view that the sugars are inhibiting entry of leukocytes into the CNS.

Assay [4] has as its system Passive Adjuvant Arthritis. In words: Suppression of passive adjuvant arthritis (foot size). Conditions: 6mg/rat/day by miniosmotic pumps for 14 days. Format: in vivo, (DA x Lew)Fl rats. On the procedure: (DA x Lew)Fl rats were immunized with M.butyricum in light mineral oil given in each foot. Ten days later spleens were removed and incubated as single cell suspension tissue culture medium in + 5µg/ml ConA for 75 hrs. Cells were harvested, washed and transferred i.v. at 65 x 10⁶ cells/rat into (DA x Lew)F recipients.
Treated rats were implanted on the day they received cells with miniosmotic pumps which delivered 6mg/rat/day of mannose-6- phosphate for 14 days. Control rats were sham operated. The results are shown in Table VII as % of pre-cell injection foot size. {Average for group; n=4 (mannose-6-phosphate); n=6 (control)}.

The mark [5] stands for this setting: Table III, experimental details as in Table I.
Where [6] appears, read: Table II, dose 10 mg over 7 days.
Setting [7] is: Table II, dose 20 mg over 7 days.
[8] abbreviates: Table II, dose 40 mg over 7 days.

Bounds are passed on as bounds.

Take “1,2,3,4-tetra-O-acetyl derivative of mannose-6-phosphate”: in assay [1], the “reduction of DTH swelling as compared with the saline controls” value was 91.5%.
Take “6-phospho-mannose-α(1-3)-{mannose-α-(1-3)}₂-mannose-α-(1-2)-mannose [Pentasaccharide]”: the EAE/Total in assay [2] (Table VI, 25x10⁶ cells/rat, 10mg/rat over 7 days by mini-osmotic pumps from day 3) is given as 1/5.
For the molecule `OC[C@H]1OC(O)[C@@H](O)[C@@H](O)[C@@H]1O` (stereo partly drawn) [D-mannose, reference compound], in assay [2] (setting [5]), the “Mean Clinical Score” value is 2.9, the “Mean Day Onset” value is listed as 5.2, the “Mean Length Disease” value was determined as 4.4 days and the “No.with EAE/Total” value is on record as 5/5. For the same molecule, the “Disease Severity (%Control)” value in assay [2] (Table III) is 84.5%. Besides, the “inhibition of EAE (result in words)” value in assay [2] is reported as “little or no effect on disease progression”.
For the molecule `O=C(COP(=O)(O)O)[C@@H](O)[C@H](O)[C@H](O)COP(=O)(O)O` [Fructose-1,6-diphosphate, fructose-1,6-diphosphate], in assay [2] (setting [5]), the “Mean Clinical Score” value amounted to 2.4, the “Mean Day Onset” value is 5.4, the “Mean Length Disease” value is 3.4 days and the “No.with EAE/Total” value was 5/5. The “Disease Severity (%Control)” value in assay [2] (Table III) is reported as 54.0%. Further, in assay [2], the “inhibition of EAE (result in words)” value is “partially inhibitory”.
In the case of `O=C(COP(=O)(O)O)[C@@H](O)[C@H](O)[C@H](O)CO` [Fructose-1-phosphate, fructose-1-phosphate], in assay [2] (setting [5]), the “Mean Clinical Score” value was 1.2, the “Mean Day Onset” value stood at 5.5, the “Mean Length Disease” value was 1.6 days and the “No.with EAE/Total” value is on record as 3/5. The “Disease Severity (%Control)” value in assay [2] (Table III) amounted to 12.6%. The “inhibition of EAE (result in words)” value in assay [2] is “as effective as mannose-6-phosphate at inhibiting disease”.
`O=C(CO)[C@@H](O)[C@H](O)[C@H](O)COP(=O)(O)O` [Fructose-6-phosphate]: in assay [2] (setting [5]), the “Mean Clinical Score” value is given as 1.6, the “Mean Day Onset” value turned out to be 6.0, the “Mean Length Disease” value was 2.4 days and the “No.with EAE/Total” value is 4/5. For the same molecule, the “Disease Severity (%Control)” value in assay [2] (Table III) worked out at 25.4%. Also, the “inhibition of EAE (result in words)” value in assay [2] was “comparatively effective inhibitor of EAE”.
Regarding `O=P(O)(O)OC[C@H]1OC(O)[C@H](O)[C@@H](O)[C@H]1O` (some centres unmarked) [Galactose-6-phosphate, galactose-6-phosphate], in assay [2] (setting [5]), the “Mean Clinical Score” value was determined as 2.0, the “Mean Day Onset” value was found to be 5.2, the “Mean Length Disease” value amounted to 3.0 days and the “No.with EAE/Total” value is recorded as 5/5. Moreover, the “Disease Severity (%Control)” value in assay [2] (Table III) turned out to be 40.5%. The “inhibition of EAE (result in words)” value in assay [2] is “partially inhibitory”.
`O=P(O)(O)OC[C@H]1OC(O)[C@H](O)[C@@H](O)[C@@H]1O` (some centres unmarked) [Glucose-6-phosphate, glucose-6-phosphate]: in assay [2] (setting [5]), the “Mean Clinical Score” value is listed as 2.0, the “Mean Day Onset” value is 5.4, the “Mean Length Disease” value came out at 3.8 days and the “No.with EAE/Total” value is reported as 5/5. The “Disease Severity (%Control)” value in assay [2] (Table III) is on record as 50.3%. The “inhibition of EAE (result in words)” value in assay [2] was “partially inhibitory”.
Turning to `O=P(O)(O)OC[C@H]1OC(O)[C@@H](O)[C@@H](O)[C@@H]1O` (some centres unmarked) [Mannose-6-phosphate, mannose-6-phosphate], the “Mean Length Disease” value was determined as 0 days in assay [2] (Table I, 40 mg/rat over 7 days); 3.3 in assay [2] (setting [6]); 3.0 in assay [2] (setting [7]); 0.7 in assay [2] (setting [8]); 1.5 days in assay [2] (setting [5]). Moreover, the “Mean Day Onset” value in assay [2] (Table I, 40 mg/rat over 7 days, s.c. pumps from day 3) is 0; in assay [2] (setting [6]) it was 5.0; in assay [2] (setting [7]) it was 5.0; in assay [2] (setting [8]), 5.0; in assay [2] (setting [5]) it was 6.0. Moreover, the “Mean Clinical Score” value in assay [2] (Table I, 40 mg/rat over 7 days, score 0-5) is 0; in assay [2] (setting [6]), 1.8; in assay [2] (setting [7]) it was 1.5; in assay [2] (setting [8]), 0.3; in assay [2] (setting [5]), 0.9. The “No.with EAE/Total” value in assay [2] (Table I, 30 x 10⁶ ConA activated EAE effector cells, 40 mg/rat over 7 days, s.c. pumps from day 3) was 0/8; in assay [2] (setting [6]) it was 4/4; in assay [2] (setting [7]), 4/4; in assay [2] (setting [8]), 1/3; in assay [2] (setting [5]), 7/10. Also, the “Disease Severity (%Control)” value in assay [2] (Table II, dose 10 mg over 7 days, listed as Mannose-6-Phosphate) is 37.7%; in assay [2] (Table II, dose 10 mg over 7 days, listed as mannose-6-phosphate), 37.7%; in assay [2] (setting [7]) it was 28.6%; in assay [2] (setting [8]), 1.7%; in assay [2] (Table III) it was 8.9%; in assay [2] (Table III, listed as mannose-6-phosphate) it was under 10%. In assay [2], the “inhibition of EAE (result in words)” value is reported as “totally inhibited development of disease”. The “CNS lesions (result in words)” value in assay [3] (text summary of Table V) was “No lesions were detected”. Also, the No.Lesions in assay [3] (treated rat 1) and in assay [3] (treated rat 2) was 0 in each case. Also, the Lesions/section in assay [3] (treated rat 1) and in assay [3] (treated rat 2) was 0 in each case. For the same molecule, the “% of pre-cell injection foot size” value amounted to 97.3% in assay [4] (Day 4, group average n=4); 105.8% in assay [4] (Day 6, n=4); 102.8% in assay [4] (Day 7, n=4); 108.4% in assay [4] (Day 9, n=4); 107.6% in assay [4] (Day 11, n=4); 117.4% in assay [4] (Day 14, n=4). Also, the “reduction of DTH swelling as compared with the saline controls” value in assay [1] was determined as 52.5%.
Take Glucose-1-phosphate: in assay [2] (setting [5]), the “Mean Clinical Score” value turned out to be 3.0, the “Mean Day Onset” value amounted to 5.2, the “Mean Length Disease” value is 3.8 days and the “No.with EAE/Total” value was 5/5. Moreover, in assay [2] (Table III), the “Disease Severity (%Control)” value is listed as 75.5%. Also, the “inhibition of EAE (result in words)” value in assay [2] is “little or no effect on disease progression”.
